Read-outs that look alike come from different tables or passages of the source. Marks after values point to notes of the source that are not given here.
Columns and labels:
[1] = tested on: mucosa of small intestine; assay: Disorder of mucosa of small intestine; format: in vivo, SD rats; conditions: 300 mg/kg orally, freely fed rats, 6 hours after dosing
Method: Disorder of Mucosa of Small Intestine Male SD origin male-rats (7 weeks old, CLEA Japan) were used. To the rats freely fed, samples were administered orally (5 mL/kg, b.w.). After 5.5 hours from the administration, Evan's Blue (0.5% Evan's Blue/saline) was injected (1 mL/rat) intravenously under no anesthesia. After 30 minutes from the shot, the intestine was removed by celiotomy and the area thereof facing mesentery was cut open. After removal of intestinal content, the spots in the intestine dyed by Evan's Blue were measured under a stereomicroscope, and the total length (mm) of the spots was determined by a counter and recorded.

yeast-induced pyrexia = assay: Antipyretic activity in yeast-induced pyrexia; format: in vivo, SD rats; conditions: 10 mg/kg orally; maximum difference in body temperature vs control over 6 hours
Method: Antipyretic Activity in Yeast-Induced Pyrexia Antipyretic activity was determined using male SD origin male-rats (7 weeks old, CLEA Japan, 1 group: n=6), according to the method of winter et. al. (J. Pharmacol. Exp. Ther., vol. 138, p. 405, 1963). Before 16 hours from measurement of body temperature, a suspension of 15% yeast in saline was injected subcutaneously (10 mL/kg, b.w.) into the rats to induce fever, and simultaneously supply of food was terminated while water was made available all the time. Each of the rats was raised separately. After 16 hours from the yeast shot, a thermistor terminal was inserted at an about 4 cm depth into rectum every hour, and the body temperatures after 30 seconds were recorded. After 18 hours, rats developing fevers consistently were selected, and a sample was orally administered to the rats (5 mL/kg, b.w.), while to the control, only the solvent was administered. After the administration, body temperatures were measured every hour for a period of 6 hours, and the maximum difference in body temperature between the rats in the sample group and in the control group were determined as Δ (° C.).

adjuvant arthritis = assay: Anti-adjuvant-arthritic activity; format: in vivo, SD rats; conditions: 10 mg/kg orally once a day for 14 days; volume of left hind limb (not injected); day of reading not given
Method: Anti-Adjuvant-Arthritic Activity
Male SD origin male-rats (6 weeks old, CLEA Japan, 1 group: n=7) were used. The adjuvant arthritis method was conducted according to the method of Newbould B. B. et. al., (Brit. J. Pharmacol. Chemother., vol. 21, p. 127, 1963). Complete Freund's adjuvant (a suspension of killed tubercule bacillus in liquid paraffin at a concentration of 0.5%, 0.05 mL) was injected into the right hind limb footpad intracutaneouly to induce multiple arthritis. Samples were administered orally (10 mg/kg, b.w.), once a day for 14 days from the day before the injection day 0 to day 13. Volume of the left hind limb (not injected) was determined by the foot-volume measurement apparatus manufactured by Ugo Basile, on the day just before the adjuvant shot (Day 0), Day 10 and Day 14, and repression rate (%) was calculated comparing the values between the sample group and the control group.

[2] = tested on: carrageenin edema of right hind limb plantar; assay: Anti-inflammatory activity, carrageenin edema method; format: in vivo, SD-rats; conditions: po
Method in brief: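 Male 6-week-old SD rats (n=6/group) dosed orally with sample, then 5 mL water; controls got solvent only. One hour later, 0.05 mL 1% carrageenin was injected subcutaneously into the right hind paw. Paw volume measured before and 2 and 3 h after injection; % inhibition versus control calculated.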

gastric mucosa = assay: Disorder of gastric mucosa; format: in vivo, SD rats; conditions: stomach, 300 mg/kg orally, fasted rats, 6 hours after dosing
Method: Disorder of Gastric Mucosa
Male SD origin male-rats (7 weeks old, CLEA Japan) were used. After 24 hours from the termination of food supply, samples were orally administered (5 mL/kg, b.w.). After 5.5 hours, Evan's Blue (0.5% Evan's Blue/saline) was injected intravenously (1 mL/rat) under no anesthesia. After 30 minutes from the shot, the stomach (with esophagus and duodenum of 1.5 to 2 cm length) was removed by celiotomy, and subsequently, the esophagus terminal was closed with a clip, and a 8 mL of 1% formalin solution was injected into the stomach through the duodenum, which was also closed with a clip after the injection. The stomach was left contacting with the 1% formalin solution for more than 10 minutes, and subsequently cut open from duodenum along the greater curvature of stomach. The stomach was washed and spread on a filter paper, and the length of each of the spots dyed by Evan's Blue (hemorrhagic portion: mucosal ablation to ulcer) was measured under a stereomicroscope, and the total length (mm) was calculated by a counter and recorded.

[3] = 10 mg/kg orally, 2 hr after carrageenin injection, read-out: Repression rate (%) Dosage 10 mg/kg 2 hr later
[4] = 10 mg/kg orally, 3 hr after carrageenin injection, read-out: Repression rate (%) Dosage 10 mg/kg 3 hr later

| SMILES | Total length of dyed spots (mm) [1] | Δ (° C.) Dosage 10 mg/kg (yeast-induced pyrexia) | Repression rate (%) Dosage 10 mg/kg (adjuvant arthritis) | inhibition in vivo at 10 mg/kg [2, 3] [%] | inhibition in vivo at 10 mg/kg [2, 4] [%] | melting point [°C] | Total length of dyed spots (mm) (gastric mucosa) | inhibition in vivo at 10 mg/kg ([2]; 2 h, read-out: Repression rate (%) Dosage 10 mg/kg 2 hr later) [%] | inhibition in vivo at 10 mg/kg ([2]; 3 h, read-out: Repression rate (%) Dosage 10 mg/kg 3 hr later) [%] |
| --- | --- | --- | --- | --- | --- | --- | --- | --- | --- |
| CCCOc1c2ccccc2nc2c1c(C)nn2-c1ccccn1 [Example 2-17, 3-Methyl-4-propoxy-1-(2-pyridinyl)-1H-pyrazolo[3,4-b]quinoline] | 0 (300 mg/kg) mm | 1.5** ° C. | 61* % | 45 | 37 |  |  |  |  |
| O=c1c2ccccc2[nH]c2c1cnn2-c1ccccn1 [Example 2-159, 1-(2-Pyridinyl)-1,9-dihydro-4H-pyrazolo[3,4-b]quinolin-4-one] | 0 (300 mg/kg) mm | 1.8** ° C. |  | 50 | 39 | 240 to 242 | 0 (300 mg/kg) mm |  |  |
| Cc1nn(-c2ccccn2)c2nc3ccccc3c(OC3CCCC3)c12 [Example 2-21, 4-Cyclopentyloxy-3-methyl-1-(2-pyridinyl)-1H-pyrazolo[3,4-b]quinoline] |  | 1.8** ° C. |  | 52 | 45 |  |  |  |  |
| Cc1nn(-c2ccccn2)c2[nH]c3cccc(F)c3c(=O)c12.Cl [Example 2-79, 5-Fluoro-3-methyl-1-(2-pyridinyl)-1,9-dihydro-4H-pyrazolo[3,4-b]quinolin-4-one hydrochloride] | 0 (300 mg/kg) mm | 1.4** ° C. |  |  |  | > 380 | 0 (300 mg/kg) mm | 37 | 33 |
| CCCNc1c2ccccc2nc2c1c(C)nn2-c1ccccn1 [Example 2-6, N-[3-Methyl-1-(2-pyridinyl)-1H-pyrazolo[3,4-b]quinolin-4-yl]-N-propylamine] |  | 0.8** ° C. |  | 43 | 35 | 121 to 122 |  |  |  |
